{"source": "ChEMBL document CHEMBL5465560", "about": "“Selectivity Literature for EUbOPEN Chemogenomic Library” (2024)", "key": {"[1]": {"target": "Tyrosine-protein kinase Yes (Homo sapiens) (UniProt P07947)", "sequence (P07947 2-543 limits assumed)": "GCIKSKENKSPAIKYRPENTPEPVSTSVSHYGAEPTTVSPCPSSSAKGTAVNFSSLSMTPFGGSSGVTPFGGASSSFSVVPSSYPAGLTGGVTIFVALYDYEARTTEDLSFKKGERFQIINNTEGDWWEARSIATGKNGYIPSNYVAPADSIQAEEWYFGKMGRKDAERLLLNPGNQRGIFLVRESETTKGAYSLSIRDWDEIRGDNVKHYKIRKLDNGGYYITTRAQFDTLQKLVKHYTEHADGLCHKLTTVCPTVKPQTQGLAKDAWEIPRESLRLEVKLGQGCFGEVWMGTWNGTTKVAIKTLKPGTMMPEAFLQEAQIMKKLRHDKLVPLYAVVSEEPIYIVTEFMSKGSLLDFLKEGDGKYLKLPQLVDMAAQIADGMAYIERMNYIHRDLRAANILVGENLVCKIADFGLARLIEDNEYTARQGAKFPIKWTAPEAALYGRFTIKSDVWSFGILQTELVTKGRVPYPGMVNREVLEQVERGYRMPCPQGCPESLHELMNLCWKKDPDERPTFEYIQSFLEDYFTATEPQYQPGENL", "assay": "Selectivity interaction (KinomeScan (DiscoverX)) EUB0001049a YES1", "conditions": "at 1 µM"}, "[2]": {"target": "Ribosomal protein S6 kinase alpha-4 (Homo sapiens) (UniProt O75676)", "sequence (O75676 whole entry, looked up)": "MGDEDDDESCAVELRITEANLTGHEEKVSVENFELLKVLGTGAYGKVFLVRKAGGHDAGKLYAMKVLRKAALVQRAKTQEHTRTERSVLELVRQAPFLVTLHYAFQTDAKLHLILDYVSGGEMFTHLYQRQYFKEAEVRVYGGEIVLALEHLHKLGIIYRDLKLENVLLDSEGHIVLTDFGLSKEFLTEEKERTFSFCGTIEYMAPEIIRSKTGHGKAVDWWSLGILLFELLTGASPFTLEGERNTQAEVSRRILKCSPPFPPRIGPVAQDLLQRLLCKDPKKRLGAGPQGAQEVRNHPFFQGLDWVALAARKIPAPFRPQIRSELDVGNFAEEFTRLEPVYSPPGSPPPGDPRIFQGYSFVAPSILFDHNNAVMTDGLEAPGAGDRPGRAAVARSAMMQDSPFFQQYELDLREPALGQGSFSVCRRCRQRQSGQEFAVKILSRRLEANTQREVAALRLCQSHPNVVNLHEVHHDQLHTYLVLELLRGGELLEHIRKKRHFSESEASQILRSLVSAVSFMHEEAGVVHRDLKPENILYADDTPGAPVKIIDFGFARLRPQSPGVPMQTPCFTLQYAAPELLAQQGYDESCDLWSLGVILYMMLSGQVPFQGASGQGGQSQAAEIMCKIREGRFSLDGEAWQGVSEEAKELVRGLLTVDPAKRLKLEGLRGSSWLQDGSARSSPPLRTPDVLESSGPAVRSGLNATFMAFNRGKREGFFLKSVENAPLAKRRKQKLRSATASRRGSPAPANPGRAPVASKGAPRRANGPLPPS", "assay": "Selectivity interaction (Ambit KINOMEscan and KiNATiv profiling in Jurkat cells) EUB0000090b RPS6KA4", "format": "cell-based", "conditions": "at 1 µM"}, "[3]": {"target": "T1, Mitogen-activated protein kinase kinase kinase 7 (Homo sapiens) (UniProt O43318)", "T1 sequence (whole entry)": "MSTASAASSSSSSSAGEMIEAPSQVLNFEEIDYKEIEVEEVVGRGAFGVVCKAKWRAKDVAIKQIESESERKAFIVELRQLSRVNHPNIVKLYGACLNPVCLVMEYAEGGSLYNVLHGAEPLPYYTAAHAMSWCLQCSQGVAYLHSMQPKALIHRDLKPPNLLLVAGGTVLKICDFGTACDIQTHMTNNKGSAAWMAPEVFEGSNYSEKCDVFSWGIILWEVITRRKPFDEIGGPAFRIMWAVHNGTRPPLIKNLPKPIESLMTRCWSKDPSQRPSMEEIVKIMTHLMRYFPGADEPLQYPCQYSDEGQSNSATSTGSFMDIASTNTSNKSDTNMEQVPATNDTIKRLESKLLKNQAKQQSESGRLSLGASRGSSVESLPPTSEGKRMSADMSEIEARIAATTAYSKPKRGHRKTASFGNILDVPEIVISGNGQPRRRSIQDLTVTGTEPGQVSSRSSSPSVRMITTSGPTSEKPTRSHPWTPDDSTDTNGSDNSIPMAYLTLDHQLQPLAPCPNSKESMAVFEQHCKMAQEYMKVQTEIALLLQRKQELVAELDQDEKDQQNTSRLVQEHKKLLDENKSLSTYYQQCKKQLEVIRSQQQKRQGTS", "assay": "Selectivity interaction (Ambit KINOMEscan and KiNATiv profiling in Jurkat cells) EUB0000090b MAP3K7", "format": "cell-based", "conditions": "at 1 µM"}, "[4]": {"target": "Serine/threonine-protein kinase SIK2 (Homo sapiens) (UniProt Q9H0K1)", "sequence (Q9H0K1 whole entry, looked up)": "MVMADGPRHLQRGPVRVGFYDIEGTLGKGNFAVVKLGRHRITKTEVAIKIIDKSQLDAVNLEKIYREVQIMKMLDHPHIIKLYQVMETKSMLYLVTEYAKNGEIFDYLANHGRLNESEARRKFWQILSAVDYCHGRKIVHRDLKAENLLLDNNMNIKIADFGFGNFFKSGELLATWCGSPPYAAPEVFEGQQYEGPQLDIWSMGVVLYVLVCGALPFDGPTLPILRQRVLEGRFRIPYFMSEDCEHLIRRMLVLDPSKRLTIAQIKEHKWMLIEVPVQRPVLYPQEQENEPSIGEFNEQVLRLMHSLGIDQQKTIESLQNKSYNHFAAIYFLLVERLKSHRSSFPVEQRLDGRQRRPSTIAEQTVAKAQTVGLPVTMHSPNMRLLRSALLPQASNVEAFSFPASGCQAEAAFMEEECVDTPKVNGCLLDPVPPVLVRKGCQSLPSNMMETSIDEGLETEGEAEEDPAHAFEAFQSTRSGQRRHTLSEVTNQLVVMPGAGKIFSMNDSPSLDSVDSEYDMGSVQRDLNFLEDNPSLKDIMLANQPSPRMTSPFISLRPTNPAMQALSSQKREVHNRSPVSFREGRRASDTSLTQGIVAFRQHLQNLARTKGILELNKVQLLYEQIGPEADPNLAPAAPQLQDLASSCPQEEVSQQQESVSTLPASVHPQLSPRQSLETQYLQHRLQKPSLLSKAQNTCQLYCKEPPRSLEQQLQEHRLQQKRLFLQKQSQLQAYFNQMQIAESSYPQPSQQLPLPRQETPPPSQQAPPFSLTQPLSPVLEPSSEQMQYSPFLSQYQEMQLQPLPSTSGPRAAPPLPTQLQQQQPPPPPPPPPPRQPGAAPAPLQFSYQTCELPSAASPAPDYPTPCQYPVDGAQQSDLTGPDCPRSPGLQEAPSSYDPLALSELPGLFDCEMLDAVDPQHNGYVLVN", "assay": "Selectivity interaction (Ambit KINOMEscan and KiNATiv profiling in Jurkat cells) EUB0000090b SIK2", "format": "cell-based", "conditions": "at 1 µM"}, "[5]": {"target": "T2, Eukaryotic translation initiation factor 2-alpha kinase 3 (Homo sapiens) (UniProt Q9NZJ5)", "T2 sequence (whole entry)": "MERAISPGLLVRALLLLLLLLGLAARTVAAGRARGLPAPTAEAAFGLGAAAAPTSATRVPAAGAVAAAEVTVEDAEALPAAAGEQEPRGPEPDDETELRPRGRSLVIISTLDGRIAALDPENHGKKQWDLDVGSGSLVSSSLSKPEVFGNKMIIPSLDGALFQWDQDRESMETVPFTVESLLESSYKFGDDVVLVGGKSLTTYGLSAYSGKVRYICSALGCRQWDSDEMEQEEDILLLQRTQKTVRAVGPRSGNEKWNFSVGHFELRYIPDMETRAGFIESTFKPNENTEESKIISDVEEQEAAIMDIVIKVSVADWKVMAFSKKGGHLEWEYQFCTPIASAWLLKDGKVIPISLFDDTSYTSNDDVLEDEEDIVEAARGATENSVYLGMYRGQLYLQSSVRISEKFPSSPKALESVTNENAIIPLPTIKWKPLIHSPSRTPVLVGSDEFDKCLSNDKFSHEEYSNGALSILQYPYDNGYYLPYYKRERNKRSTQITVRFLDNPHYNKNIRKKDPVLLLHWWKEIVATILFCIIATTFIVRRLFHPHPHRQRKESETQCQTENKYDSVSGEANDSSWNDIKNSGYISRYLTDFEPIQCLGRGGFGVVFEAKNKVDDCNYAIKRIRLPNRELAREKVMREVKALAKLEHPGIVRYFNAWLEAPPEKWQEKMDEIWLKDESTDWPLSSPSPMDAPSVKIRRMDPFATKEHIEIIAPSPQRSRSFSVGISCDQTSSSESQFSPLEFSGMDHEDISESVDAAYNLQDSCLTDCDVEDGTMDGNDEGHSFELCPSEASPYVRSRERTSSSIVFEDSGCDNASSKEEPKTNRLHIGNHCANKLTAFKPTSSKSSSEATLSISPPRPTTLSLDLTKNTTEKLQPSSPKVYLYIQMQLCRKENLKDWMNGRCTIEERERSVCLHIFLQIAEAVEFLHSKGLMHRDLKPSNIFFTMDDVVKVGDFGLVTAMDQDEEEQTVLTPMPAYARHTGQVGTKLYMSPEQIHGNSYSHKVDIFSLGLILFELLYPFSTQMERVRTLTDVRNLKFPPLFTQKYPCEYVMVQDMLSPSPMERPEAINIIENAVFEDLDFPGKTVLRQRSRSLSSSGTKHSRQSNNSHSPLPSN", "assay": "Selectivity interaction (Kinase panel (KiNativ target engagement assay in Jurkat cells)) EUB0001635a EIF2AK3", "format": "cell-based", "conditions": "Selectivity number of off-targets 0.0, Selectivity number of targets 233.0, Source Knowledge https://www.sciencedirect.com/science/article/pii/S2451945619300674?via%3Dihub, at 1 µM"}, "[6]": {"target": "T3, Protein kinase C iota type (Homo sapiens) (UniProt P41743)", "T3 sequence (whole entry)": "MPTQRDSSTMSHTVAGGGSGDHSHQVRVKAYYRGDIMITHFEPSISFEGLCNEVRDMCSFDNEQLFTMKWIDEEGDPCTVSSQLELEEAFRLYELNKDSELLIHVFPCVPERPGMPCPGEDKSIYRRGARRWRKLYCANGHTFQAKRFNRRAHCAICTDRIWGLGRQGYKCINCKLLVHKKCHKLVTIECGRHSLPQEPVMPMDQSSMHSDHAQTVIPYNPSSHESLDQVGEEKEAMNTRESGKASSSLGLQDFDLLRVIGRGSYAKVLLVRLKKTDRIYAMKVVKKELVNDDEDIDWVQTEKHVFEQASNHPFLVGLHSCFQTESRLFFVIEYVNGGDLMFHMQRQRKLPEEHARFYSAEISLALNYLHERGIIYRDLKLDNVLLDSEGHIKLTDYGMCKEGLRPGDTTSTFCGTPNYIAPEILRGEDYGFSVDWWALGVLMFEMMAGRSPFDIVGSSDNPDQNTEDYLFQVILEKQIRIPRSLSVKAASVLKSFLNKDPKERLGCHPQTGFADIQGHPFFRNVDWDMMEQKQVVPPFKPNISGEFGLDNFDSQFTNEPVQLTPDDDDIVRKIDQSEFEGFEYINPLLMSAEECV", "assay": "Selectivity interaction (KinomeScan (DiscoverX)) EUB0000229b PRKCI", "conditions": "at 10 µM"}, "[7]": {"target": "STE20/SPS1-related proline-alanine-rich protein kinase (Homo sapiens) (UniProt Q9UEW8)", "assay": "Selectivity interaction (KinomeScan (DiscoverX)) EUB0000618a STK39", "conditions": "at 10 µM"}, "[8]": {"target": "RAF proto-oncogene serine/threonine-protein kinase (Homo sapiens) (UniProt P04049)", "sequence (P04049 whole entry)": "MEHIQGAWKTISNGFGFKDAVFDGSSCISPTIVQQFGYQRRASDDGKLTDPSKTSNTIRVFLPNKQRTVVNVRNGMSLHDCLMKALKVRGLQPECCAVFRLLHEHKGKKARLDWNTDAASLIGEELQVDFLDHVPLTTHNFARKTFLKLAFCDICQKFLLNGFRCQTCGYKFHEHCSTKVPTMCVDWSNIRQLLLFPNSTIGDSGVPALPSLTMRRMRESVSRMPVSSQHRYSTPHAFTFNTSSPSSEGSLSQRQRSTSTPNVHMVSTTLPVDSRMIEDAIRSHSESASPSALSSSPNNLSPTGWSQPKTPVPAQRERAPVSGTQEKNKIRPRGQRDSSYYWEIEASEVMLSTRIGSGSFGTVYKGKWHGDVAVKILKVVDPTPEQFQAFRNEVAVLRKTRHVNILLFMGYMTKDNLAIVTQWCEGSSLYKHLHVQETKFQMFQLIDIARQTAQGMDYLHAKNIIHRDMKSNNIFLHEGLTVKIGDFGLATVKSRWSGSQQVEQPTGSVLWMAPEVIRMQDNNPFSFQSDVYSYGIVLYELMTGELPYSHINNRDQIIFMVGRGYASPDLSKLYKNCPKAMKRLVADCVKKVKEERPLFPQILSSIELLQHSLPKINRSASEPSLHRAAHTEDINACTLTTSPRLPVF", "assay": "Selectivity interaction (KinomeScan (DiscoverX)) EUB0000618a RAF1", "conditions": "at 10 µM"}, "[9]": {"target": "T4, Tyrosine-protein kinase SYK (Homo sapiens, UniProt P43405)", "assay": "(§1) Selectivity interaction (ActivX KiNativ screen (ex vivo kinase selectivity in human PBMCs)) EUB0001619a SYK", "format": "cell-based", "conditions": "PBMC, at 1 µM"}, "[10]": {"target": "T4, Tyrosine-protein kinase SYK", "assay": "as §1", "format": "cell-based", "conditions": "PBMC, at 1 µM", "remark": "listed apart in the source"}}}
{"compound": "COc1cc(Nc2nc(C)cc(-c3cnn4nc(OC)ccc34)n2)cc(C(F)(F)F)c1", "values": [{"measurement": "% of control", "setting": "[1]", "value": 80, "unit": "%"}]}
{"compound": "CN(C)C/C=C/C(=O)Nc1ccc(C(=O)N2CCCC(Nc3ncc(Cl)c(-c4c[nH]c5ccccc45)n3)C2)cc1", "note": "(stereo not given)", "values": [{"measurement": "% of control", "setting": "[2]", "value": 100, "unit": "%"}, {"measurement": "% of control", "setting": "[3]", "value": 90, "unit": "%"}, {"measurement": "% of control", "setting": "[4]", "value": 93, "unit": "%"}]}
{"compound": "C=CC(=O)Nc1ccc(C(=O)Nc2[nH]nc3c2CN(C(=O)N[C@H](CN(C)C)c2ccccc2)C3(C)C)cc1", "values": [{"measurement": "% of engagement", "setting": "[5]", "value": -7.7, "unit": "%"}]}
{"compound": "COc1cc(N(C)c2ccnc3ccc(C(F)(F)F)cc23)cc(OC)c1OC", "values": [{"measurement": "% binding", "setting": "[6]", "value": 82, "unit": "%"}]}
{"compound": "O[C@H]1CC[C@H](Nc2ncc3nc(Nc4c(F)cc(F)cc4F)n([C@H]4CCOC4)c3n2)CC1", "values": [{"measurement": "% of control", "setting": "[7]", "value": 100, "unit": "%"}, {"measurement": "% of control", "setting": "[8]", "value": 100, "unit": "%"}]}
{"compound": "N#Cc1cccc(-c2c[nH]c3ncnc(N4CCOCC4)c23)c1", "values": [{"measurement": "% of inhibition", "setting": "[9]", "value": 0, "unit": "%"}, {"measurement": "% of inhibition", "setting": "[10]", "value": 7, "unit": "%"}]}
